According to US20020128301A1, “Non-nucleoside reverse transcriptase inhibitors” (priority 1998, published 2002):

Experiment: Bioavailability: release of the mother compound of Formula P-2 from orally administered prodrugs in rats, plasma assayed by HPLC
Conditions: oral, propylene glycol vehicle, fasted male Sprague Dawley rats, dose corresponding to […]; released drug (1S,2S)-N-[cis-2-(6-fluoro-2-hydroxy-3-propionylphenyl)cyclopropyl]-N'-[2-(5-cyanopyridyl)]urea measured in plasma
Method: At 30, 60, 120, 240 & 360 minutes, 0.2 ml blood were collected, centrifuged and frozen for later analysis. […] Aliquots comprising 40-100 μl of each plasma sample are mixed with an equal volume of acetonitrile (10 seconds, Vibrofex). The sample is centrifuged (2 min, 14000 RPM) and 30 μl the supernatant is injected into an HPLC system, as follows.

Row | SMILES | Bioavailability 0-6 hours
1 | CCC(=O)c1ccc(F)c([C@@H]2C[C@@H]2NC(=O)Nc2ccc(C#N)cn2)c1OCOC(=O)[C@@H](N)[C@@H](C)CC (relative stereo) [Example 1, (1S, 2S)-N-{cis-2-[6-fluoro-2-(L-isoleucyloxymethyloxy)-3-propionylphenyl]cyclopropyl}-N′-[2-(5-cyanopyridyl)]urea] | 34%
2 | CCC(=O)c1ccc(F)c([C@@H]2C[C@@H]2NC(=O)Nc2ccc(C#N)cn2)c1OCOC(=O)OC(COC(=O)[C@@H](N)C(C)C)COC(=O)[C@@H](N)C(C)C (relative stereo) [Example 6] | 50%
3 | CCC(=O)c1ccc(F)c([C@@H]2C[C@@H]2NC(=O)Nc2ccc(C#N)cn2)c1OC(=O)OCOC(=O)[C@@H](N)C(C)C (relative stereo) [Example 7, (1S,2S)-N-[cis-2-(6-fluoro-2-(L-valyloxy)methoxycarbonyloxy-3-propionylphenyl)cyclopropyl]-N′-[2-(5-cyanopyridyl)]urea] | 70%
